In article PMC3894558, “Chemical signatures and new drug targets for gametocytocidal drug development” (Scientific Reports, 2014):
Where two headings read alike, the source gives them in different places.

Test system: P. falciparum 3D7 gametocytes
Assay: alamarBlue gametocyte viability assay, strain 3D7
Type: cell-based, Plasmodium falciparum
Details: for Max Resp: DMSO set at 0%, 100 nM epoxomicin set at -100%; for Curve Class / IC50: stages III-V 3D7 gametocytes; for IC50: 11 concentrations, 1:3 dilution; call rule not given here

Compound: O=C(c1ccccc1F)N(Cc1ccc(Cl)cc1)c1ccccn1 [MMV665899]
- Max Resp (Malaria Box): -26%
- Curve Class (Malaria Box): 4
- IC50 (Malaria Box): Inactive

Compound: O=C(Nc1ccc(CN2CCOCC2)cc1)c1ccc(-c2ccc(Br)cc2)o1 [MMV665901]
- Max Resp (Malaria Box): -41%
- Curve Class (Malaria Box): -2.4
- IC50 (Malaria Box): Inactive

Compound: Cl.N=c1n(CCN2CCCCC2)c2ccccc2n1CC(O)c1cccc(Br)c1 (stereo not drawn) [MMV665902]
- Max Resp (Malaria Box): -99%
- Curve Class (Malaria Box): -1.1
- IC50 (Malaria Box, read-out: IC50): 3.72 µM

Compound: COCCn1c(C)nc2ccccc2c1=O [MMV665904]
- Max Resp (Malaria Box): -7%
- Curve Class (Malaria Box): 4
- IC50 (Malaria Box): Inactive

Compound: Cc1ccc(-c2cc(C(=O)Nc3ccc(S(=O)(=O)N4CCCCC4)cc3)[nH]n2)c(O)c1 [MMV665906]
- Max Resp (Malaria Box): -61%
- Curve Class (Malaria Box): -1.2
- IC50 (Malaria Box, read-out: IC50): 5.26 µM

Compound: COc1ccc(N2CCN(C(CNC(=O)CC(C)(C)C)c3ccc4c(c3)OCO4)CC2)cc1 (stereo not drawn) [MMV665908]
- Max Resp (Malaria Box): -26%
- Curve Class (Malaria Box): 4
- IC50 (Malaria Box): Inactive

Compound: O=C(Nc1nc(-c2ccccn2)cs1)c1ccccc1Br [MMV665909]
- Max Resp (Malaria Box): -65%
- Curve Class (Malaria Box): -2.2
- IC50 (Malaria Box, read-out: IC50): 18.7 µM

Compound: CCOc1ccc(-c2nc(NC(=O)c3cccc(S(C)(=O)=O)c3)sc2C)cc1 [MMV665913]
- Max Resp (Malaria Box): -15%
- Curve Class (Malaria Box): 4
- IC50 (Malaria Box): Inactive

Compound: COc1ccccc1N1CCN(C(CNS(=O)(=O)c2ccc(Cl)cc2)c2cccnc2)CC1 (stereo not drawn) [MMV665914]
- Max Resp (Malaria Box): -63%
- Curve Class (Malaria Box): -2.2
- IC50 (Malaria Box, read-out: IC50): 29.6 µM

Compound: COc1ccc(-c2nc(NC(=O)CS(=O)(=O)c3ccc(F)cc3)sc2C)cc1 [MMV665915]
- Max Resp (Malaria Box): -44%
- Curve Class (Malaria Box): -2.2
- IC50 (Malaria Box): Inactive

Compound: COc1ccccc1CNC(=O)CCn1c(=O)[nH]c2ccccc2c1=O [MMV665916]
- Max Resp (Malaria Box): -1%
- Curve Class (Malaria Box): 4
- IC50 (Malaria Box): Inactive

Compound: O=C(Nc1ccc(Cl)cc1)N1CCN(c2ccc3nncn3n2)CC1 [MMV665917]
- Max Resp (Malaria Box): -1%
- Curve Class (Malaria Box): 4
- IC50 (Malaria Box): Inactive

Compound: O=C(CSc1ccc2nnc(-c3cccc(F)c3)n2n1)Nc1ccc2c(c1)OCO2 [MMV665918]
- Max Resp (Malaria Box): -14%
- Curve Class (Malaria Box): 4
- IC50 (Malaria Box): Inactive

Compound: N=c1c2ccccc2nnn1-c1cccc(C(F)(F)F)c1 [MMV665923]
- Max Resp (Malaria Box): 14%
- Curve Class (Malaria Box): 4
- IC50 (Malaria Box): Inactive

Compound: COc1ccc(C(=O)C2CC2c2ccc(Cl)cc2)cc1 (stereo not drawn) [MMV665924]
- Max Resp (Malaria Box): -23%
- Curve Class (Malaria Box): 4
- IC50 (Malaria Box): Inactive

Compound: O=C(CCl)NCCOc1ccc(Cl)cc1Cl [MMV665927]
- Max Resp (Malaria Box): -88%
- Curve Class (Malaria Box): -2.1
- IC50 (Malaria Box, read-out: IC50): 16.6 µM

Compound: CCC(C)NCC(O)(c1ccc(Cl)cc1)c1ccc(Cl)cc1 (stereo not drawn) [MMV665928]
- Max Resp (Malaria Box): -78%
- Curve Class (Malaria Box): -2.2
- IC50 (Malaria Box, read-out: IC50): 5.9 µM

Compound: CCCCNCC(O)(c1ccc(Cl)cc1)c1ccc(Cl)cc1 [MMV665929]
- Max Resp (Malaria Box): -73%
- Curve Class (Malaria Box): -1.2
- IC50 (Malaria Box, read-out: IC50): 2.96 µM

Compound: O=C1c2ccccc2-c2nnc(-c3ccc(Br)cc3)cc21 [MMV665934]
- Max Resp (Malaria Box): 17%
- Curve Class (Malaria Box): 4
- IC50 (Malaria Box): Inactive

Compound: FC(F)(F)c1ccc(Nc2nnnc3ccccc23)cc1 [MMV665935]
- Max Resp (Malaria Box): 25%
- Curve Class (Malaria Box): 4
- IC50 (Malaria Box): Inactive

Compound: Cc1ccc(S(=O)(=O)c2c(COC(=O)c3cccc(C)c3)c(-c3ccccc3)nn2C)cc1 [MMV665936]
- Max Resp (Malaria Box): 5%
- Curve Class (Malaria Box): 4
- IC50 (Malaria Box): Inactive

Compound: CCOc1ccc(/C=C/c2nc(=O)c3ccccc3o2)cc1 [MMV665940]
- Max Resp (Malaria Box): 46%
- Curve Class (Malaria Box): 2.2
- IC50 (Malaria Box, read-out: IC50): 18.7 µM

Compound: CN(C)c1ccc(C(O)(c2ccc(N(C)C)cc2)c2ccc(N(C)C)cc2)cc1 [MMV665941]
- Max Resp (Malaria Box): -118%
- Curve Class (Malaria Box): -1.1
- IC50 (Plasmodium falciparum, 3D7, Malaria Box, read-out: IC50): 5.9 µM

Compound: Nc1ccc(-c2nc3cc(Cc4ccc5[nH]c(-c6ccc(N)cc6)nc5c4)ccc3[nH]2)cc1 [MMV665943]
- Max Resp (Malaria Box): -69%
- Curve Class (Malaria Box): -2.2
- IC50 (Malaria Box, read-out: IC50): 29.6 µM

Compound: COc1ccc(CN2CCN(Cc3ccccc3)CC2)c(O)c1 [MMV665944]
- Max Resp (Malaria Box): -96%
- Curve Class (Malaria Box): -2.1
- IC50 (Malaria Box, read-out: IC50): 6.62 µM

Compound: CC(C)=CCN1CCC(C(=O)Nc2ccc(-c3nc4ccccc4[nH]3)cc2)CC1 [MMV665946]
- Max Resp (Malaria Box): -77%
- Curve Class (Malaria Box): -2.2
- IC50 (Malaria Box, read-out: IC50): 14.8 µM

Compound: O=C(Nc1ccccc1O)c1ccc(-c2ccc(Cl)cc2Cl)o1 [MMV665948]
- Max Resp (Malaria Box): -52%
- Curve Class (Malaria Box): -1.4
- IC50 (Malaria Box, read-out: IC50): 5.9 µM

Compound: Oc1ccc(C(=C(Cl)Cl)c2ccc(O)cc2)cc1 [MMV665949]
- Max Resp (Malaria Box): -40%
- Curve Class (Malaria Box): -1.2
- IC50 (Malaria Box, read-out: IC50): 9.35 µM

Compound: O=C(Nc1ccc(F)c(Cl)c1)Nc1ccc(Cl)c(Cl)c1 [MMV665953]
- Max Resp (Malaria Box): -94%
- Curve Class (Malaria Box): -2.1
- IC50 (Malaria Box, read-out: IC50): 18.7 µM

Compound: O=C(NCC1Cc2cccc(-c3ccncc3)c2O1)c1csc2c1CCCC2 (stereo not drawn) [MMV665954]
- Max Resp (Malaria Box): 5%
- Curve Class (Malaria Box): 4
- IC50 (Malaria Box): Inactive

Compound: CCN(CC)CCCNc1nc(-c2ccc(Cl)cc2)nc2ccccc12 [MMV665961]
- Max Resp (Malaria Box): -95%
- Curve Class (Malaria Box): -2.1
- IC50 (Malaria Box, read-out: IC50): 16.6 µM

Compound: COc1cccc(C(=O)NC(c2ccc(C)cc2)c2cc(Cl)c3cccnc3c2O)c1 (stereo not drawn) [MMV665969]
- Max Resp (Malaria Box): -76%
- Curve Class (Malaria Box): -2.2
- IC50 (Malaria Box, read-out: IC50): 11.8 µM

Compound: CCOC(=O)C1=C(C)N=c2sc(=Cc3cc(Cl)ccc3O)c(=O)n2C1c1ccc(OC)cc1 (stereo not drawn) [MMV665971]
- Max Resp (Malaria Box): -40%
- Curve Class (Malaria Box): -1.2
- IC50 (Malaria Box, read-out: IC50): 2.96 µM

Compound: O=C(Cc1ccccc1)NC(c1ccc(Cl)cc1)c1c(O)ccc2ccccc12 (stereo not drawn) [MMV665972]
- Max Resp (Malaria Box): -62%
- Curve Class (Malaria Box): -2.2
- IC50 (Malaria Box, read-out: IC50): 29.6 µM

Compound: CCOC(=O)c1cn(CC)c2cc(N(C)CCc3ccc(OC)c(OC)c3)c(F)cc2c1=O [MMV665977]
- Max Resp (Malaria Box): 2%
- Curve Class (Malaria Box): 4
- IC50 (Malaria Box): Inactive

Compound: FC(F)(F)c1cccc(CNC2CCN(CCc3ccccc3)CC2)c1 [MMV665979]
- Max Resp (Malaria Box): -89%
- Curve Class (Malaria Box): -2.1
- IC50 (Malaria Box, read-out: IC50): 14.8 µM

Compound: OC1CCCCC1C1(NC(=S)Nc2ccccc2)CCCCC1 (stereo not drawn) [MMV665980]
- Max Resp (Malaria Box): -81%
- Curve Class (Malaria Box): -2.1
- IC50 (Malaria Box, read-out: IC50): 11.8 µM

Compound: CCCCCCc1cc(O)c2c3c(c(=O)oc2c1)CCC(C)C3 (stereo not drawn) [MMV665987]
- Max Resp (Malaria Box): 0%
- Curve Class (Malaria Box): 4
- IC50 (Malaria Box): Inactive

Compound: Cc1nc2ccccc2c(O)c1CC=C(Cl)Cl [MMV665994]
- Max Resp (Malaria Box): 5%
- Curve Class (Malaria Box): 4
- IC50 (Malaria Box): Inactive

Compound: CN1c2ccccc2N(C)C1c1ccc2c(c1)OCO2 [MMV666009]
- Max Resp (Malaria Box): -36%
- Curve Class (Malaria Box): -2.4
- IC50 (Malaria Box): Inactive

Compound: Cc1ccc(OCCCCCCNCCO)c(C)c1 [MMV666020]
- Max Resp (Malaria Box): -64%
- Curve Class (Malaria Box): -2.2
- IC50 (Malaria Box, read-out: IC50): 37.2 µM

Compound: Cc1ccc(-c2cc3c(nn2)-c2ccccc2C3=O)cc1 [MMV666021]
- Max Resp (Malaria Box): -4%
- Curve Class (Malaria Box): 4
- IC50 (Malaria Box): Inactive

Compound: COc1ccc(C(=O)NC(c2ccccc2Cl)c2cc(Cl)c3cccnc3c2O)cc1 (stereo not drawn) [MMV666022]
- Max Resp (Malaria Box): -83%
- Curve Class (Malaria Box): -2.1
- IC50 (Malaria Box, read-out: IC50): 14.8 µM

Compound: c1ccc(Cn2c(N=Nc3c(Nc4ccccc4)ccc4ccccc34)nc3ccccc32)cc1 [MMV666023]
- Max Resp (Malaria Box): -89%
- Curve Class (Malaria Box): -2.1
- IC50 (Malaria Box, read-out: IC50): 10.5 µM

Compound: OC(Cn1nnc2ccccc21)Cn1c2ccc(Br)cc2c2cc(Br)ccc21 (stereo not drawn) [MMV666025]
- Max Resp (Malaria Box): -60%
- Curve Class (Malaria Box): -2.2
- IC50 (Malaria Box, read-out: IC50): 37.2 µM

Compound: COc1ccc(-c2cc3c(nn2)-c2ccccc2C3=O)cc1 [MMV666026]
- Max Resp (Malaria Box): 0%
- Curve Class (Malaria Box): 4
- IC50 (Malaria Box): Inactive

Compound: COc1ccc(C(=O)NC(c2ccc(Cl)cc2Cl)c2cc(Cl)c3cccnc3c2O)cc1 (stereo not drawn) [MMV666054]
- Max Resp (Malaria Box): -125%
- Curve Class (Malaria Box): -2.1
- IC50 (Malaria Box, read-out: IC50): 16.6 µM
